Measured values published in patent US8198273B2, “Compounds and methods for kinase modulation, and indications therefor” (Plexxikon Inc., priority 2009, dated 2012).

Tests used:
CYP1A2 = molecular target: T1, CYP1A2 (Homo sapiens, UniProt P05177); experiment: CYP1A2 inhibition (fluorescent substrate); format: in vitro ADME; settings: CYP1A2, CEC substrate; read-out: Cyp IC50 1A2
T1 sequence (P05177 1-516): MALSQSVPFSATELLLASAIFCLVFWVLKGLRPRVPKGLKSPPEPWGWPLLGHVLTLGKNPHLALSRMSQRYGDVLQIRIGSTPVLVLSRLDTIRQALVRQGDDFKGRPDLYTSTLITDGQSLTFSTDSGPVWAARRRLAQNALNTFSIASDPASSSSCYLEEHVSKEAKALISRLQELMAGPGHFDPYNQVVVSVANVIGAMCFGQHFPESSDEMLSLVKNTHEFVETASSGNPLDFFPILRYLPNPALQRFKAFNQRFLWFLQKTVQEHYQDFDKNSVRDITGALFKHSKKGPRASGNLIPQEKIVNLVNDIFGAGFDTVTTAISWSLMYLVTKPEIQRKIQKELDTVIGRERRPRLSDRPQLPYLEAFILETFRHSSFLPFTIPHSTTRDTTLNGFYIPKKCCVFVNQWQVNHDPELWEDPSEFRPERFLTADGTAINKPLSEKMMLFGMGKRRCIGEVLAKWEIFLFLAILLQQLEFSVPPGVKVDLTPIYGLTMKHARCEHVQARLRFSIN
Summary of the method: (§1)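 First, 100 mM DMSO stocks are diluted into acetonitrile, then twofold through co-factor mix for 10 points. Next, mixtures are preincubated 10 min at 37 °C.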

CYP2C19 = CYP2C19 (Homo sapiens, UniProt P33261); experiment: CYP2C19 inhibition (fluorescent substrate); format: in vitro ADME; settings: CYP2C19, CEC substrate; read-out: Cyp IC50 2C19
Summary of the method: as §1

CYP2D6 = CYP2D6 (Homo sapiens, UniProt P10635); experiment: CYP2D6 inhibition (fluorescent substrate); format: in vitro ADME; settings: CYP2D6, AMMC substrate; read-out: Cyp IC50 2D6
Summary of the method: as §1

CYP2C9 = CYP2C9 (Homo sapiens, UniProt P11712); experiment: CYP2C9 inhibition (fluorescent substrate); format: in vitro ADME; settings: CYP2C9, MFC substrate; read-out: Cyp IC50 2C9
Summary of the method: as §1

[1] = tested on: SW620 colon adenocarcinoma cells (wild-type B-RAF); experiment: SW620 cell growth inhibition (ATPlite); format: cell-based; settings: Homo sapiens, SW-620, 72 h; SW620, 3 days incubation
Summary of the method: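 ATPlite luminescence, taken as a cell-number measure, gave IC50 values after a 3-day 37° C, 5% CO2 incubation. Compounds were tested as 8-point threefold titrations, highest final concentration 10 μM, added to cells seeded the day before.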

CYP2D6, sequence (P10635 whole entry): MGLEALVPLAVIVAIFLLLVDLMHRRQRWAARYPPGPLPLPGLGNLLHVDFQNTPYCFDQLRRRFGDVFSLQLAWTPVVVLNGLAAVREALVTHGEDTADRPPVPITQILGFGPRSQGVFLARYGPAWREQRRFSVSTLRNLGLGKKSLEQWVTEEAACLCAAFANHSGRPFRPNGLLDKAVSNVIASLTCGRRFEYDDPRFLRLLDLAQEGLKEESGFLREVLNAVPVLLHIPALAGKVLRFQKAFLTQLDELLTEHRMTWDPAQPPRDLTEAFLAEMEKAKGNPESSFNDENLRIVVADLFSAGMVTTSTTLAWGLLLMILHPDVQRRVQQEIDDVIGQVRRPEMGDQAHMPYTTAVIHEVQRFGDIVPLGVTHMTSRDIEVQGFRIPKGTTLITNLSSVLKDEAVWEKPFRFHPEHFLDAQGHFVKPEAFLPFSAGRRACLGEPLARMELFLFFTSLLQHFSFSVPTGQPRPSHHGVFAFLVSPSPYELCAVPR
CYP2C19, sequence (P33261 whole entry): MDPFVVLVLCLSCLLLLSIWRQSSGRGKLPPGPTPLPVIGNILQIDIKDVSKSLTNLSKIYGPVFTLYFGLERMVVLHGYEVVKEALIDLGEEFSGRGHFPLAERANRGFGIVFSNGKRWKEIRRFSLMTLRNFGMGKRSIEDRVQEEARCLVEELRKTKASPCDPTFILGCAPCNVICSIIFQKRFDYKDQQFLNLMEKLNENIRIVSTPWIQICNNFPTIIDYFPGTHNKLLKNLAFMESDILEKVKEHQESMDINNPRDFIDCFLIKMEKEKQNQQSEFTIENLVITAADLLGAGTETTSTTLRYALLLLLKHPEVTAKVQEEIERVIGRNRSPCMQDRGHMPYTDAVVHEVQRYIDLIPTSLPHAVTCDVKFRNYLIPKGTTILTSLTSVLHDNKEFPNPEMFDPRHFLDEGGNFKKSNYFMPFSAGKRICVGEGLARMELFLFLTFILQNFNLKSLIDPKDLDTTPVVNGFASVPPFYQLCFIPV
CYP2C9, sequence (P11712 whole entry): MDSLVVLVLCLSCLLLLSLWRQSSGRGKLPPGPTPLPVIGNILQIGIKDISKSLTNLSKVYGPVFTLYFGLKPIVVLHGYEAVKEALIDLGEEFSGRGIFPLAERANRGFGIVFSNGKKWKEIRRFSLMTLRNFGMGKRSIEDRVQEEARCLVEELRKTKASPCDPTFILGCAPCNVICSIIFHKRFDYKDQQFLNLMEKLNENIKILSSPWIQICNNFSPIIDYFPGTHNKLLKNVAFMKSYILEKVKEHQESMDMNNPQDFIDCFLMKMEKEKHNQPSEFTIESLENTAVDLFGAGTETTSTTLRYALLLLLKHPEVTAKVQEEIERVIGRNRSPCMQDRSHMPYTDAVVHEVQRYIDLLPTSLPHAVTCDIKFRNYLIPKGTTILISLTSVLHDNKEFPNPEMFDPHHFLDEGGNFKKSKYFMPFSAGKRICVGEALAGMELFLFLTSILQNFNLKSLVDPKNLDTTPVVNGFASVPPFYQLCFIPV

IC50 (CYP1A2) | IC50 (CYP2C19) | IC50 (CYP2D6) | IC50 (CYP2C9) | IC50 [1] | SMILES
> 10 µM | < 5 µM | > 10 µM | < 5 µM | > 10 µM | CCCS(=O)(=O)Nc1ccc(F)c(C(=O)c2c[nH]c3ncc(-c4ccc(OCCCN5CCOCC5)nc4)cc23)c1F [P-2236, Propane-1-sulfonic acid (2,4-difluoro-3-{5-[6-(3-morpholin-4-yl-propoxy)-pyridin-3-yl]-1H-pyrrolo[2,3-b]pyridine-3-carbonyl}-phenyl)-amide]
> 10 µM | > 10 µM | > 10 µM | < 5 µM | > 10 µM | Cc1cnc2[nH]cc(C(=O)c3c(F)ccc(NS(=O)(=O)c4cccc(F)c4)c3F)c2c1 [P-2016, N-[2,4-Difluoro-3-(5-methyl-1H-pyrrolo[2,3-b]pyridine-3-carbonyl)-phenyl]-3-fluoro-benzenesulfonamide]
> 10 µM | 5 to 10 µM | > 10 µM | 5 to 10 µM | < 20 µM | O=C(c1c(F)ccc(NS(=O)(=O)c2cc(F)ccc2F)c1F)c1c[nH]c2ncc(Cl)cc12 [P-2002, N-[3-(5-Chloro-1H-pyrrolo[2,3-b]pyridine-3-carbonyl)-2,4-difluoro-phenyl]-2,5-difluoro-benzenesulfonamide]
> 10 µM | > 10 µM | > 10 µM | > 10 µM | > 10 µM | N#Cc1cnc2[nH]cc(C(=O)c3c(F)ccc(NS(=O)(=O)c4cccnc4)c3F)c2c1 [P-2072, Pyridine-3-sulfonic acid [3-(5-cyano-1H-pyrrolo[2,3-b]pyridine-3-carbonyl)-2,4-difluoro-phenyl]-amide]
> 10 µM | < 5 µM | > 10 µM | > 10 µM | > 10 µM | CCCS(=O)(=O)Nc1ccc(F)c(C(=O)c2c[nH]c3ncc(-c4cnc(N5CCCC5)nc4)cc23)c1F [P-2219, Propane-1-sulfonic acid {2,4-difluoro-3-[5-(2-pyrrolidin-1-yl-pyrimidin-5-yl)-1H-pyrrolo[2,3-b]pyridine-3-carbonyl]-phenyl}-amide]
> 10 µM | 5 to 10 µM | > 10 µM | 5 to 10 µM | > 10 µM | CCCS(=O)(=O)Nc1ccc(F)c(C(=O)c2c[nH]c3ncc(-c4ccc(Cl)nc4)cc23)c1F [P-2154, Propane-1-sulfonic acid {3-[5-(6-chloro-pyridin-3-yl)-1H-pyrrolo[2,3-b]pyridine-3-carbonyl]-2,4-difluoro-phenyl}-amide]
> 10 µM | > 10 µM | > 10 µM | 5 to 10 µM | > 10 µM | N#Cc1ccnc2[nH]cc(C(=O)c3c(F)ccc(NS(=O)(=O)c4cccnc4)c3F)c12 [P-2077, Pyridine-3-sulfonic acid [3-(4-cyano-1H-pyrrolo[2,3-b]pyridine-3-carbonyl)-2,4-difluoro-phenyl]-amide]
> 10 µM | 5 to 10 µM | > 10 µM | > 10 µM | < 20 µM | CCCS(=O)(=O)Nc1ccc(F)c(C(=O)c2c[nH]c3ncc(-c4ccc(N)nc4)cc23)c1F [P-2214, Propane-1-sulfonic acid {3-[5-(6-amino-pyridin-3-yl)-1H-pyrrolo[2,3-b]pyridine-3-carbonyl]-2,4-difluoro-phenyl}-amide]
> 10 µM | < 5 µM | > 10 µM | > 10 µM | > 10 µM | CCCS(=O)(=O)Nc1ccc(F)c(C(=O)c2c[nH]c3ncc(-c4ccc(OCCCN5CCCC5)nc4)cc23)c1F [P-2235, Propane-1-sulfonic acid (2,4-difluoro-3-{5-[6-(3-pyrrolidin-1-yl-propoxy)-pyridin-3-yl]-1H-pyrrolo[2,3-b]pyridine-3-carbonyl}-phenyl)-amide]
> 10 µM | 5 to 10 µM | > 10 µM | 5 to 10 µM | > 10 µM | C#Cc1cnc2[nH]cc(C(=O)c3c(F)ccc(NS(=O)(=O)CCC)c3F)c2c1 [P-2260, Propane-1-sulfonic acid [3-(5-ethynyl-1H-pyrrolo[2,3-b]pyridine-3-carbonyl)-2,4-difluoro-phenyl]-amide]
> 10 µM | > 10 µM | > 10 µM | > 10 µM | > 10 µM | COc1ccnc2[nH]cc(C(=O)c3c(F)ccc(NS(=O)(=O)c4c(F)cccc4F)c3F)c12 [P-2031, N-[2,4-Difluoro-3-(4-methoxy-1H-pyrrolo[2,3-b]pyridine-3-carbonyl)-phenyl]-2,6-difluoro-benzenesulfonamide]
> 10 µM | > 10 µM | > 10 µM | > 10 µM | < 10 µM | CCCS(=O)(=O)Nc1ccc(F)c(C(=O)c2c[nH]c3ncc(-c4ccc(S(=O)(=O)N5CCOCC5)cc4)cc23)c1F [P-2166, Propane-1-sulfonic acid (2,4-difluoro-3-{5-[4-(morpholine-4-sulfonyl)-phenyl]-1H-pyrrolo[2,3-b]pyridine-3-carbonyl}-phenyl)-amide]
> 10 µM | > 10 µM | > 10 µM | < 5 µM | < 20 µM | CCCS(=O)(=O)Nc1ccc(F)c(C(=O)c2c[nH]c3ncc(-c4ccc(C)nc4)cc23)c1F [P-2213, Propane-1-sulfonic acid {2,4-difluoro-3-[5-(6-methyl-pyridin-3-yl)-1H-pyrrolo[2,3-b]pyridine-3-carbonyl]-phenyl}-amide]
> 10 µM | 5 to 10 µM | > 10 µM | > 10 µM | > 10 µM | CCCS(=O)(=O)Nc1ccc(F)c(C(=O)c2c[nH]c3ncc(-c4ccc(NC(C)=O)nc4)cc23)c1F [P-2193, N-(5-{3-[2,6-Difluoro-3-(propane-1-sulfonylamino)-benzoyl]-1H-pyrrolo[2,3-b]pyridin-5-yl}-pyridin-2-yl)-acetamide]
> 10 µM | > 10 µM | > 10 µM | > 10 µM | > 10 µM | COc1ccnc2[nH]cc(C(=O)c3c(F)ccc(NS(=O)(=O)c4cccnc4)c3F)c12 [P-2073, Pyridine-3-sulfonic acid [2,4-difluoro-3-(4-methoxy-1H-pyrrolo[2,3-b]pyridine-3-carbonyl)-phenyl]-amide]
> 10 µM | > 10 µM | > 10 µM | > 10 µM | > 10 µM | N#Cc1cnc2[nH]cc(C(=O)c3c(F)ccc(NS(=O)(=O)c4c(F)cccc4F)c3F)c2c1 [P-2029, N-[3-(5-Cyano-1H-pyrrolo[2,3-b]pyridine-3-carbonyl)-2,4-difluoro-phenyl]-2,6-difluoro-benzenesulfonamide]
> 10 µM | < 5 µM | > 10 µM | > 10 µM | > 10 µM | CCCS(=O)(=O)Nc1cccc(C(=O)c2c[nH]c3ncc(-c4cnc(OC)nc4)cc23)c1F [P-2407, Propane-1-sulfonic acid {2-fluoro-3-[5-(2-methoxy-pyrimidin-5-yl)-1H-pyrrolo[2,3-b]pyridine-3-carbonyl]-phenyl}-amide]
> 10 µM | > 10 µM | > 10 µM | < 5 µM | > 10 µM | N#Cc1cnc2[nH]cc(C(=O)c3cccc(NS(=O)(=O)c4cc(F)ccc4F)c3F)c2c1 [P-2052, N-[3-(5-Cyano-1H-pyrrolo[2,3-b]pyridine-3-carbonyl)-2-fluoro-phenyl]-2,5-difluoro-benzenesulfonamide]
> 10 µM | > 10 µM | > 10 µM | 5 to 10 µM | > 10 µM | CCCS(=O)(=O)Nc1ccc(F)c(C(=O)c2c[nH]c3ncc(-c4ccc(OCCN5CCOCC5)nc4)cc23)c1F [P-2232, Propane-1-sulfonic acid (2,4-difluoro-3-{5-[6-(2-morpholin-4-yl-ethoxy)-pyridin-3-yl]-1H-pyrrolo[2,3-b]pyridine-3-carbonyl}-phenyl)-amide]
> 10 µM | 5 to 10 µM | > 10 µM | > 10 µM | > 10 µM | CCCS(=O)(=O)Nc1ccc(F)c(C(=O)c2c[nH]c3ncc(-c4ccc(OCCN5CCCC5)nc4)cc23)c1F [P-2233, Propane-1-sulfonic acid (2,4-difluoro-3-{5-[6-(2-pyrrolidin-1-yl-ethoxy)-pyridin-3-yl]-1H-pyrrolo[2,3-b]pyridine-3-carbonyl}-phenyl)-amide]
